{
  "source": "patent US12516356B2",
  "about": "“Process for the detoxification of lignocellulosic hydrolysate and its use in synthesizing xylitol” (COUNCIL OF SCIENTIFIC AND INDUSTRIAL RESEARCH, priority 2020, dated 2026)",
  "system": "HepG2 cell lines",
  "assay": "cytotoxicity studies on HepG2 cell lines",
  "assay_type": "cell-based",
  "details": "xylitol crystals recovered from fermentation broth",
  "data": [
    {"molecule": "OC[C@@H](O)[C@H](O)[C@@H](O)CO", "note": "[Xylitol crystals, xylitol]", "values": [
      {"measurement": "toxic effect on HepG2 cell lines (cytotoxicity studies)", "result": "no toxic effect"}
    ]}
  ]
}
